From US20050203100A1, “Use of an alfa2-adrenoreceptor antagonist for cns-related diseases” (priority 2002, published 2005)
“Also recorded” adds a separate entry of the source.

What was measured:
[1] = system: startle reflex and its prepulse inhibition in rats pretreated with the psychostimulant phencyclidine (PCP); assay: PCP-induced PPI disruption, startle reflex and prepulse inhibition in rats pretreated with phencyclidine; format: in vivo; details: FIG. 2; for effect on PCP-disrupted prepulse inhibition (PPI): antagonist 20 min and PCP 10 min before measurement, vs vehicle+PCP
Method: (§1) In order to study the effect of alpha2-antagonists on startle reflex and its prepulse-inhibition, groups of rats (n=10/group) were pre-treated with the alpha2C-antagonist or vehicle 20 min before measurement of the acoustic startle reactivity and PPI in a test system designed for startle studies (SR-LAB, San Diego Instruments, CA, USA). In a subsequent experiment the effects of the alpha2-adrenoceptor subtype selective alpha2C-antagonist and or the subtype non-selective antagonist atipamezole (Haapalinna, A. et al., Naunyn-Schmiedeberg's Arch. Pharmacol. 356 (1997) 570-582) on PCP-induced PPI-disruption was studied. The antagonists were given 20 min, and PCP or vehicle 10 min before start of the startle measurements. The method otherwise corresponds to the procedure described in Sallinen, J. et al., J. Neurosci. 18 (1998) 3035-42.

[2] = system: startle reflex and its prepulse inhibition in rats; assay: Acoustic startle reactivity and prepulse inhibition (PPI) in rats; format: in vivo; details: compound given 20 min before measurement, vs vehicle, FIG. 1
Method: as §1

Row | Compound | effect on PCP-disrupted prepulse inhibition (PPI) [1] | effect on prepulse inhibition (PPI, sensorimotor gating) [2] | effect on startle reflex (startle reactivity to intense pulses without prepulses) [2] | effect of PCP on prepulse inhibition (PPI) ([1]; PCP given 10 min before measurement) | effect on startle reactivity per se ([1]; PCP experiment)
1 | CN1CCN(c2ccc(Nc3c4ccccc4nc4ccccc34)cc2)CC1 [JP-1302, acridin-9-yl-[4-(4-methylpiperazin-1-yl)-phenyl]amine] | effectively counteracted; also recorded: especially clearly seen in the presence of PCP | enhanced sensorimotor gating (prepulse inhibition %); also recorded: increased PPI dose-dependently and effectively | without significantly affecting the startle reactivity; also recorded: did not affect the startle reflex per se | – | –
2 | c1ccc(C2(N3CCCCC3)CCCCC2)cc1 [PCP, phencyclidine] | – | – | – | clearly disrupted the PPI | –
3 | CCC1(c2cnc[nH]2)Cc2ccccc2C1 [atipamezole] | had no effect on the PPI phenomenon | – | – | – | increased significantly the startle reactivity per se
